Experimental data from US9029582B2, “Pharmaceutical composition” (Capital, Business Y Gestion de Finanzas S.L., priority 2011, dated 2015).

Key:
[1] = Dissolution / reconstitution time at 50 mg/mL in castor oil, ethanol and benzyl alcohol solvent (benzyl benzoate-free); format: physicochemical; conditions: solvent of castor oil and benzyl benzoate-free alcohol mixtures
Procedure: The lyophilizate should be reconstituted within a reasonable period, typically of less than 2 minutes (5); if reconstitution time is excessive, that is, more than 3 minutes, the user may get impatient or frustrated (6). […] This comparison was performed by dissolving fulvestrant at a concentration of 50 mg/mL, using a solvent comprising castor oil and benzyl benzoate-free alcohol mixtures.
A 50 mL Schott, type I, glass vial is placed on an Ohaus Adventurer balance. Then, 3.12 g Merck ethanol, 4.17 g Sigma-Aldrich benzyl alcohol and 12.70 g Sigma-Aldrich castor oil are added.
With the aid of a 1000 uL Eppendorf Research micropipette, 5 mL of the previously prepared solvent was added into an 11 mL Nuova Ompi type I of glass vial. The vial is capped with a solution S-additive plug from WestPharma and crimped with an aluminum seal.
The process for reconstituting a vial of lyophilizate of example 1 with the solvent of said example, using a Needle-less Transfer System Transfer Device 20/20 w/150 mic Filter Sterile from Westpharma, FIG. 9, is as follows:
10. The complete content of the syringe is discharged into the lyophilizate vial. […]
Using a Sper Scientific timer, it was determined that less than 90 seconds were required for reconstituting the lyophilizate. […]
It was determined that more than 60 minutes were required to completely dissolve Fulvestrant in the solvent using a Sper Scientific timer.

[2] = Stability test of the fulvestrant solution in acetic acid during 6 hours at room temperature (HPLC titer and impurities); format: physicochemical; conditions: fulvestrant in glacial acetic acid
Procedure: To a 10 mL beaker, fitted with a magnetic stirrer, 2.5 mL glacial acetic acid, Merck lot K 36685863, is added.
Fifty mg Fulvestrant from Scinopharm, lot#70850AA003 were weighed using an Ohaus model Adventurer balance.
Stirring of acetic acid is started and Fulvestrant is slowly added which is rapidly dissolved. After all Fulvestrant was added stirring is continued for 5 minutes.
Stirring is stopped and the solution is left at room temperature for 6 hours, then dissolution is analyzed in terms of titer and purity by HPLC, and compared to Scinopharm Fulvestrant as used for manufacturing the lyophilizate. HPLC determinations were carried out on an HPLC Waters with a Waters 1525 binary pump, Waters 717 autosampler, and a Waters 2996 diode array detector; the HPLC column used for determining titer and purity is an Agilent Eclipse XDB-C8 3.5 u 4.6×150 Rapid Res column; the chromatographic method corresponds to US Pharmacopeia (USP, 34 (2011)) monograph for Fulvestrant.

[3] = cited from earlier work

dissolution time [1]: more than 60 minutes
titer of the solution [2]: 99.2%
total impurities in the solution [2]: 0.1%
SMILES: C[C@]12CC[C@@H]3c4ccc(O)cc4C[C@@H](CCCCCCCCC[S+]([O-])CCCC(F)(F)C(F)(F)F)[C@H]3[C@@H]1CC[C@@H]2O (some centres unmarked) [Fulvestrant]
solubility in castor oil with organic solvents (alcohol) and a non-aqueous ester-type solvent ([3]; carrier of US 6,774,122): at least 50 mg/mL
solubility in ethanol ([3]; ethanol, ref (3) US 6,774,122): highly soluble
fulvestrant solubility in propylene glycol ([3]; propylene glycol, according to ref (7) US 2009/0227549): 4000 µg/mL
solubility in tert-butanol ([3]; tert-butanol, ref (7)): highly soluble
solubility in water ([3]; water, ref (3)): practically insoluble
